The values below come from US7442529B2, “Fluorescent probes for biological studies” (Massachusetts Institute of Technology, priority 2005, dated 2008).

Structures can show the parent of a compound that is named as a salt. Non-standard residues stand in square brackets, D forms with d. Residues, ends and D or L forms follow the SMILES beside them. Dap(6-DMN) = CN(C)c1ccc2cc3c(cc2c1)C(=O)N(C[C@H](N)C(=O)O)C3=O; pY = N[C@@H](Cc1ccc(OP(=O)(O)O)cc1)C(=O)O

In one series the target is T1, GST-Abl SH2 (Homo sapiens, UniProt P00519).
T1 construct: The SH2 domain was cloned using BamH1 (5′) EcoR1 (3′) sites; made in house; host or cells: E. coli (plasmid received from elsewhere; strain not clearly stated for Abl)
T1 sequence (P00519 127-217 limits assumed): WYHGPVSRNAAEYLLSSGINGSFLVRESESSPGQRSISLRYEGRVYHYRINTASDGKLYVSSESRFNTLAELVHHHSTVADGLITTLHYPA
Briefly: Fluorescence titration of peptides with GST-Abl SH2, determination of Kd. Type of series: binding. The procedure: (§1) The peptides of Table 1 were incubated with targeted and nontargeted SH2 domains. The binding of peptides Crk-bp, Crk-bp2, Abl-bp, and Abl-bp2 to SH2 target domains can be studied by fluorescence titration as shown in FIGS. 1-4.
Fluorescence titrations of Abl-bp with non-targeted GST-PI3K SH2 and […] are shown in FIG. 2 (b) and 4 (c), respectively. The relative fluorescence emission intensities for the Abl-bp peptide and aforementioned SH2 domain titrations are shown in FIG. 2 (c).
Fluorescence titrations Abl-bp2 with non-targeted GST-PI3K SH2 and GST-Crk SH2 are shown in FIGS. 3 (b) and 4 (d), respectively. The relative fluorescence emission intensities for the Abl-bp2 peptide and aforementioned SH2 domain titrations are shown in FIG. 3 (c).
(§2) Peptide stock solutions of known concentration (determined by UV absorbance at 388 nm, E=7980 M−1 cm−1) were used to prepare 5 μM peptide concentration samples in buffered water (150 μL total volume, 100 mM NaCl, 10 mM sodium phosphate, pH 7.5). 2 μL aliquots of the corresponding stock protein solution (GST-Crk SH2, GST-Abl SH2 or GST-PI3K SH2, concentration determined by Bio-Rad Protein Assay) were consecutively added, and fluorescence emission spectra were recorded 1 minute after each addition ([…], 2 nm excitation and emission slit width). The increase in emission intensity at the maximum emission wavelength was plotted against total protein concentration and fitted by least-square analysis assuming a 1 to 1 binding mode to obtain the apparent Kd.
Abl-SH2 was received as a GST fusion in a pGEX-KT vector, amp-resistant, IPTG-inducible. The SH2 domain was cloned using BamH1 (5′) EcoR1 (3′) sites.

For the next series, the system named is GST-PI3K SH2. Briefly: Fluorescence titration of peptides with GST-PI3K SH2 (non-target domain). In kind it is binding. Conditions: peptide saturated with GST-PI3K SH2, 565 nm (FIG. 1c). The procedure: as §1
(§3) Fluorescence titrations of Crk-bp and Crk-bp2 with targeted GST-Crk SH2 are shown in FIG. 1 (a) and (b), respectively. Fluorescence titrations of Crk-bp and Crk-bp2 with non-targeted GST-Abl SH2 are shown in FIG. 4 (a) and (b), respectively.
Peptide stock solutions of known concentration (determined by UV absorbance at 388 nm, E=7980 M−1 cm−1) were used to prepare 5 μM peptide concentration samples in buffered water (150 μL total volume, 100 mM NaCl, 10 mM sodium phosphate, pH 7.5). 2 μL aliquots of the corresponding stock protein solution (GST-Crk SH2, GST-Abl SH2 or GST-PI3K SH2, concentration determined by Bio-Rad Protein Assay) were consecutively added, and fluorescence emission spectra were recorded 1 minute after each addition (excitation 395 nm, 2 nm excitation and emission slit width). […]
Src and PI3K SH2 domains were expressed and purified as GST fusion following reported procedures. […] Proteins were quantified using the Micro BCA protein Assay Kit (Pierce) relative to a BSA standard. All fusion proteins were analyzed by Coomasie staining and Western analysis with anti-GST antibodies.

For a further series, the target named is GST-Crk SH2 (Homo sapiens, UniProt P46108). Briefly: Fluorescence titration of peptides with GST-Crk SH2, determination of Kd. In kind it is binding. More on the design: Human Crk SH2 domain was expressed as a GST fusion protein; made in house; host or cells: E. coli NB42. On the procedure:
as §1, §3, §2
Human Crk SH2 domain was expressed as a GST fusion protein transformed into E. coli NB42 strain. Expression of SH2 domains was carried out following reported conditions. […]

The conditions of series [1]: in 0.1 M H2SO4; Melhuish 1961; cited from earlier work.
Series [2] in a line: Photophysical properties: UV absorbance, fluorescence emission and quantum yield in different solvents. To be noted: water; calculated using peptide Abl-bp; vs. quinine sulfate standard. In kind it is physicochemical. The procedure: Quantum yields (Φ) were measured by comparison with a standard, which emits in a similar region to the test sample. From the available standard compounds quinine sulfate in 0.1 M H2SO4 (Φ=0.54) was selected.
UV absorbance at the excitation wavelength (375 nm), and fluorescence emission spectra of a series of solutions of the standard and compound were recorded. Solutions were prepared with different absorbances, ranging from 0 (solvent blank) to 0.1. A series of graphs of integrated fluorescence vs. absorbance were obtained. The data were fitted to a linear equation with gradient (grad), and intercept=0. See FIG. 5 as an example of the plots obtained.
The gradients of graphs in FIG. 5 are proportional to the quantum yield of the different samples. Absolute values were calculated using the standard sample, which has a fixed and known fluorescence quantum yield value, according to the following equation: […]
Where the subscripts std and x denote standard and test respectively. The value Φ is the fluorescence quantum yield, grad is the gradient (grad) from the plot of integrated fluorescence intensity vs. absorbance, and η the refractive index of the solvent.
The UV absorbance spectra (40 μM in methanol) and fluorescence emission spectra of compound (VIII), 6DMN-GlyOMe are shown in FIG. 6 and tabulated in Table 4. The UV spectrum of 6DMN-GlyOMe has an intense absorption band at 378 nm which is not found in unsubstituted 2,3-naphthalimides. The maximum excitation wavelength of 6DMN-GlyOMe is at 375 nm.
Quantum yields (Φ) were measured in the solvents listed in Table 2 by comparison with a standard, which emits in a similar region to 6DMN-GlyOMe. Quinine sulfate in 0.1 M H2SO4 (Φ=0.54) was used as the standard. (Melhuish, W. B. J. Phys. Chem., 1961, 65, 229-235). Solutions were prepared at different concentrations such that the absorbance measurements ranged between 0 and 0.1 at and above the excitation wavelength to avoid non-linear effects.
UV absorbance at the excitation wavelength (375 nm), and fluorescence emission spectra of a series of solutions of the standard and 6DMN-GlyOMe were recorded. A series of graphs of integrated fluorescence vs. absorbance were obtained. The data were fitted to a linear equation with gradient (grad), and intercept=0. The gradient (grad) is proportional to the quantum yield of the sample. Absolute values were calculated using the standard sample, which has a fixed and known fluorescence quantum yield value, according to the equation above.

Regarding `CC[C@H](C)[C@H](NC(=O)[C@H](CC(N)=O)NC(=O)[C@@H]1CCCN1C(=O)[C@H](Cc1c[nH]cn1)NC(=O)[C@H](CC(=O)O)NC(=O)[C@H](Cc1ccc(OP(=O)(O)O)cc1)NC(=O)[C@H](CCC(N)=O)NC(=O)[C@H](CN1C(=O)c2cc3ccc(N(C)C)cc3cc2C1=O)NC(=O)CNC(C)=O)C(N)=O` [Crk-bp2, Ac-Gly-Dap(6DMN)-Gln-pTyr-Asp-His-Pro-Asn-Ile-(CONH2) (SEQ ID NO: 5)] (Ac-G[Dap(6-DMN)]Q[pY]DHPNI-NH2), the “relative fluorescence emission intensity with non-target SH2 domain compared with targeted GST-Crk SH2” value on GST-Abl SH2 (peptide saturated with GST-Abl SH2, 565 nm (FIG. 1c)) is listed as “notably less”; with GST-PI3K SH2 it was “notably less”.

Consider `CC[C@H](C)[C@H](NC(=O)[C@H](CC(N)=O)NC(=O)[C@@H]1CCCN1C(=O)[C@H](Cc1c[nH]cn1)NC(=O)[C@H](CC(=O)O)NC(=O)[C@H](Cc1ccc(OP(=O)(O)O)cc1)NC(=O)[C@H](CCC(N)=O)NC(=O)[C@H](CN1C(=O)c2cc3ccc(N(C)C)cc3cc2C1=O)NC(=O)[C@H](CCC(=O)O)NC(C)=O)C(N)=O` [Crk-bp, Ac-Glu-Dap(6DMN)-Gln-pTyr-Asp-His-Pro-Asn-Ile-(CONH2) (SEQ ID NO: 1)] (Ac-E[Dap(6-DMN)]Q[pY]DHPNI-NH2), for which the dissociation constant (Kd) (usually the concentration at which binding is half-saturated) at GST-Crk SH2 came out at 4.8 ± 2 µM. On GST-Crk SH2 (target Crk SH2, excitation 375 nm, emission 565 nm), the Fluorescence increase is given as 500%^b.

For `C=C[C@H]1C[N@@]2CC[C@H]1C[C@H]2[C@H](O)c1ccnc2ccc(OC)cc12` [quinine sulfate], the “quantum yield (Φ) of the standard” value in series [1] is given as 0.54. For “Ac-Dap(6DMN)-Gln-pTyr-Glu-Asn-Val-Gln-Ser-(CONH2) (SEQ OD NO: 7) [Abl-bp2]”, at GST-Abl SH2 (target Abl SH2, 20 μM in PBS buffer, pH 7.5), the affinity, expressed as Kd, was 12 ± 2 µM. “Ac-Gly-Dap(6DMN)-Gln-pTyr-Glu-Asn-Val-Gln-Ser-(CONH2) (SEQ ID NO: 6) (Ac-G[Dap(6DMN)]Q[pY]ENVQS-NH2) [Abl-bp]”: the Fluorescence increase with GST-Abl SH2 (target Abl SH2, excitation 375 nm, emission 599 nm) was 400%^c. In addition, the “quantum yield (Φ)” value in series [2] was 0.002.
